# From patent US10323004B2, “Inhibitors of indoleamine 2,3-dioxygenase and methods of their use” (BRISTOL-MYERS SQUIBB COMPANY, priority 2016, dated 2019)
# Target: T1, human IDO1 (Homo sapiens, UniProt P14902)
# T1 construct: expressed in transfected cells
# Experiment: human IDO1/HEK293 cell IDO inhibition assay (kynurenine production)
# Format: cell-based
# Conditions: HEK293 cells stably expressing human IDO1; 20 hours incubation; absorbance at 490 nm; read-out: Biol. Activity (HEK μM) IDO IC50
# Experimental: HEK293 cells were transfected with a pCDNA-based mammalian expression vector harboring human IDO1 cDNA (NM 002164.2) by electroporation. They were cultured in medium (DMEM with 10% FBS) containing 1 mg/ml G418 for two weeks. Clones of HEK293 cells that stably expressed human IDO1 protein were selected and expanded for IDO inhibition assay.
# The human IDO1/HEK293 cells were seeded at 10,000 cells per 50 μL per well with RPMI/phenol red free media contains 10% FBS in a 384-well black wall clear bottom tissue culture plate (Matrix Technologies LLC) 100 nL of certain concentration of compound was then added to each well using ECHO liquid handling systems. The cells were incubated for 20 hours in 37° C. incubator with 5% CO2.
# The compound treatments were stopped by adding trichloroacetic acid (Sigma-Aldrich) to a final concentration at 0.2%. The cell plate was further incubated at 50° C. for 30 minute. The equal volume supernatant (20 μL) and 0.2% (w/v) Ehrlich reagent (4-dimethylaminobenzaldehyde, Sigma-Aldrich) in glacial acetic acid were mixed in a new clear bottom 384-well plate. This plate was then incubated at room temperature for 30 minute. The absorbance at 490 nm was measured on Envision plate reader.
# Compound IC50 values were calculated using the counts of 500 nM of a reference standard treatment as one hundred percent inhibition, and counts of no compound but DMSO treatment as zero percent inhibition.
# T1 sequence (P14902 whole entry): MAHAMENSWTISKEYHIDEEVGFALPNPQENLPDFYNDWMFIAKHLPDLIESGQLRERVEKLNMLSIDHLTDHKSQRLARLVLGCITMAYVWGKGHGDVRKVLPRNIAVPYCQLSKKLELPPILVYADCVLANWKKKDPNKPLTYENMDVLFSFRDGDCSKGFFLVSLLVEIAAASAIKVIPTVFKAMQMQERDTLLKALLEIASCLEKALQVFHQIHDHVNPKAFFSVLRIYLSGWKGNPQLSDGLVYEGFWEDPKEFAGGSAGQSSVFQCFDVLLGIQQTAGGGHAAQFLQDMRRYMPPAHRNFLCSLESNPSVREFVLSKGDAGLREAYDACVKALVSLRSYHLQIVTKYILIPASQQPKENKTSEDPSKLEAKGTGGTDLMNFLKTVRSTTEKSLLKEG
row,IC50,SMILES
1,< 10 µM,"O=C(Cc1ccc(Cl)cc1)N(Cc1ccccc1)[C@H]1CC[C@H](c2ccnc3ccc(F)cc32)CC1 [Example 1, N-benzyl-2-(4-chlorophenyl)-N-(trans-4-(6-fluoroquinolin-4-yl)cyclohexyl)acetamide]"
2,< 1 µM,"O=C(c1ccc(Cl)cc1)N(Cc1ccccc1)[C@H]1CC[C@H](c2ccnc3ccc(F)cc32)CC1 [Example 2, N-benzyl-4-chloro-N-(trans-4-(6-fluoroquinolin-4-yl)cyclohexyl)benzamide]"
3,< 10 µM,"O=C(Cc1ccc(Cl)cc1)N(Cc1ccccc1)[C@H]1CC[C@@H](c2ccnc3ccc(F)cc32)CC1 [Example 4, N-benzyl-2-(4-chlorophenyl)-N-(cis-4-(6-fluoroquinolin-4-yl)cyclohexyl)acetamide]"
4,< 10 µM,"N#Cc1ccc(C(=O)N(Cc2ccccc2)[C@H]2CC[C@H](c3ccnc4ccc(F)cc43)CC2)cc1 [Example 3, N-benzyl-4-cyano-N-(trans-4-(6-fluoroquinolin-4-yl)cyclohexyl)benzamide]"
